Measured values reported in ChEMBL document CHEMBL1201861, “Genomics of Drug Sensitity in Cancer screening data, Wellcome Trust Sanger Institute”.

What was measured:
[1] = system: HCC2157; assay: cells; type: functional, cell-based; conditions: Homo sapiens;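 also: growth inhibition of the cancer cell line, read out as cell viability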
Description: SANGER: Inhibition of human HCC2157 cell growth in a cell viability assay.

[2] = system: IMR-5; assay: cells; type: functional, cell-based; conditions: Homo sapiens;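 also: growth inhibition of human IMR-5 cells, read out with a cell viability assay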
Description: SANGER: Inhibition of human IMR-5 cell growth in a cell viability assay.

[3] = system: K052; assay: cells; type: functional, cell-based; conditions: Homo sapiens;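 also: Read-out from a cell viability assay, IC50 reflecting suppression of K052 cell growth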
Description: SANGER: Inhibition of human K052 cell growth in a cell viability assay.

[4] = system: LU-165; assay: cells; type: functional, cell-based; conditions: Homo sapiens
Description: SANGER: Inhibition of human LU-165 cell growth in a cell viability assay.

[5] = system: NB14; assay: cells; type: functional, cell-based; conditions: Homo sapiens;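 also: growth inhibition of NB14 cells measured with a cell viability assay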
Description: SANGER: Inhibition of human NB14 cell growth in a cell viability assay.

[6] = system: NB17; assay: cells; type: functional, cell-based; conditions: Homo sapiens;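 also: growth inhibition of NB17 cells, read out with a cell viability assay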
Description: SANGER: Inhibition of human NB17 cell growth in a cell viability assay.

[7] = system: NCI-H1882; assay: cells; type: functional, cell-based; conditions: Homo sapiens;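 also: growth inhibition of the cell line, determined with a viability assay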
Description: SANGER: Inhibition of human NCI-H1882 cell growth in a cell viability assay.

[8] = system: NCI-H1963; assay: cells; type: functional, cell-based; conditions: Homo sapiens;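 also: cell growth inhibition of the human line, determined with a cell viability assay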
Description: SANGER: Inhibition of human NCI-H1963 cell growth in a cell viability assay.

[9] = system: NCI-H2141; assay: cells; type: functional, cell-based; conditions: Homo sapiens;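 also: growth inhibition of human NCI-H2141 cells, read out with a cell viability assay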
Description: SANGER: Inhibition of human NCI-H2141 cell growth in a cell viability assay.

[10] = system: NCI-H64; assay: cells; type: functional, cell-based; conditions: Homo sapiens;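 also: growth inhibition of NCI-H64 cells, read out with a cell viability assay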
Description: SANGER: Inhibition of human NCI-H64 cell growth in a cell viability assay.

[11] = system: OPM-2; assay: cells; type: functional, cell-based; conditions: Homo sapiens;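 also: growth of OPM-2 cells measured with a viability assay, IC50 for suppression of proliferation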
Description: SANGER: Inhibition of human OPM-2 cell growth in a cell viability assay.

[12] = system: RL; assay: cells; type: functional, cell-based; conditions: Homo sapiens
Description: SANGER: Inhibition of human RL cell growth in a cell viability assay.

[13] = system: SCC-3; assay: cells; type: functional, cell-based; conditions: Homo sapiens;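 also: cell viability assay measuring inhibition of SCC-3 cell growth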
Description: SANGER: Inhibition of human SCC-3 cell growth in a cell viability assay.

[14] = system: SNU-C1; assay: cells; type: functional, cell-based; conditions: Homo sapiens;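 also: growth inhibition of SNU-C1 human cells, read out by a cell viability assay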
Description: SANGER: Inhibition of human SNU-C1 cell growth in a cell viability assay.

[15] = system: SU-DHL-1; assay: SANGER: Inhibition of human SU-DHL-1 cell growth in a cell viability assay.; type: functional, cell-based
[16] = system: A253 cell line; assay: cells; type: functional, cell-based; conditions: Homo sapiens;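 also: growth inhibition of A253 cells, read out with a cell viability assay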
Description: SANGER: Inhibition of human A253 cell growth in a cell viability assay.

[17] = system: ARH-77; assay: cells; type: functional, cell-based; conditions: Homo sapiens;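 also: growth inhibition of ARH-77 cells, read out by a cell viability assay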
Description: SANGER: Inhibition of human ARH-77 cell growth in a cell viability assay.

[18] = system: CESS; assay: SANGER: Inhibition of human CESS cell growth in a cell viability assay.; type: functional, cell-based
[19] = system: CHP-126; assay: cells; type: functional, cell-based; conditions: Homo sapiens
Description: SANGER: Inhibition of human CHP-126 cell growth in a cell viability assay.

[20] = system: Calu-3; assay: cells; type: functional, cell-based; conditions: Homo sapiens;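 also: growth inhibition of human Calu-3 cells, determined with a cell viability assay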
Description: SANGER: Inhibition of human Calu-3 cell growth in a cell viability assay.

[21] = system: Daoy; assay: cells; type: functional, cell-based; conditions: Homo sapiens;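 also: daoy cell growth inhibition, read out as cell viability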
Description: SANGER: Inhibition of human Daoy cell growth in a cell viability assay.

[22] = system: EGI-1; assay: cells; type: functional, cell-based; conditions: Homo sapiens;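 also: cell viability readout used to gauge growth inhibition of EGI-1 cells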
Description: SANGER: Inhibition of human EGI-1 cell growth in a cell viability assay.

[23] = system: FaDu; assay: cells; type: functional, cell-based; conditions: Homo sapiens;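 also: cell viability readout of growth inhibition in FaDu cells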
Description: SANGER: Inhibition of human FADU cell growth in a cell viability assay.

[24] = system: GMS-10; assay: cells; type: functional, cell-based; conditions: Homo sapiens;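 also: growth inhibition of GMS-10 cells, read out as cell viability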
Description: SANGER: Inhibition of human GMS-10 cell growth in a cell viability assay.

[25] = system: HCC1395; assay: cells; type: functional, cell-based; conditions: Homo sapiens;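 also: growth inhibition of HCC1395 cells, read out by a cell viability assay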
Description: SANGER: Inhibition of human HCC1395 cell growth in a cell viability assay.

[26] = system: HCC1954; assay: cells; type: functional, cell-based; conditions: Homo sapiens;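 also: growth inhibition of human HCC1954 cells, read out with a cell viability assay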
Description: SANGER: Inhibition of human HCC1954 cell growth in a cell viability assay.

[27] = system: HCT-15; assay: cells; type: functional, cell-based; conditions: Homo sapiens;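 also: cell viability readout, IC50 reflecting suppression of HCT-15 cell growth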
Description: SANGER: Inhibition of human HCT-15 cell growth in a cell viability assay.

[28] = system: HSC-2; assay: cells; type: functional, cell-based; conditions: Homo sapiens;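 also: growth inhibition of human HSC-2 cells, read out by a cell viability assay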
Description: SANGER: Inhibition of human HSC-2 cell growth in a cell viability assay.

[29] = system: HSC-4; assay: cells; type: functional, cell-based; conditions: Homo sapiens;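 also: growth inhibition of human HSC-4 cells, read out with a cell viability assay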
Description: SANGER: Inhibition of human HSC-4 cell growth in a cell viability assay.

[30] = system: HT1197; assay: cells; type: functional, cell-based, HT-1197; conditions: Homo sapiens
Description: SANGER: Inhibition of human HT-1197 cell growth in a cell viability assay.

[31] = system: HuP-T4; assay: cells; type: functional, cell-based; conditions: Homo sapiens;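 also: cell viability assay measuring how much HuP-T4 cell growth is inhibited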
Description: SANGER: Inhibition of human HuP-T4 cell growth in a cell viability assay.

[32] = system: IGR-1; assay: cells; type: functional, cell-based; conditions: Homo sapiens;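 also: growth inhibition of human IGR-1 cells, read out with a cell viability assay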
Description: SANGER: Inhibition of human IGR-1 cell growth in a cell viability assay.

[33] = system: KYSE-270; assay: cells; type: functional, cell-based; conditions: Homo sapiens;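 also: cell growth inhibition measured with a viability assay in the human KYSE-270 line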
Description: SANGER: Inhibition of human KYSE-270 cell growth in a cell viability assay.

[34] = system: KYSE-450; assay: cells; type: functional, cell-based; conditions: Homo sapiens;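 also: cell growth inhibition measured by a viability assay in human KYSE-450 cells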
Description: SANGER: Inhibition of human KYSE-450 cell growth in a cell viability assay.

[35] = system: MDA-MB-415; assay: cells; type: functional, cell-based; conditions: Homo sapiens
[36] = system: MEL-JUSO; assay: cells; type: functional, cell-based; conditions: Homo sapiens;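 also: growth inhibition of human MEL-JUSO cells, read out with a cell viability assay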
Description: SANGER: Inhibition of human MEL-JUSO cell growth in a cell viability assay.

[37] = system: MIA PaCa-2; assay: cells; type: functional, cell-based; conditions: Homo sapiens;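 also: growth inhibition of MIA PaCa-2 cells, read out with a cell viability assay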
Description: SANGER: Inhibition of human MIA-PaCa-2 cell growth in a cell viability assay.

[38] = system: MKN-45; assay: cells; type: functional, cell-based; conditions: Homo sapiens;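 also: growth inhibition of human MKN-45 cells, measured with a cell viability assay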
Description: SANGER: Inhibition of human MKN45 cell growth in a cell viability assay.

[39] = system: NCI-H650; assay: cells; type: functional, cell-based; conditions: Homo sapiens;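 also: growth inhibition of NCI-H650 cells, read out by a viability assay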
Description: SANGER: Inhibition of human NCI-H650 cell growth in a cell viability assay.

[40] = system: Panc1005; assay: cells; type: functional, cell-based; conditions: Homo sapiens;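 also: growth inhibition of human PANC-10-05 cells, measured by a cell viability assay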
Description: SANGER: Inhibition of human PANC-10-05 cell growth in a cell viability assay.

[41] = system: RCM-1; assay: cells; type: functional, cell-based; conditions: Homo sapiens;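 also: growth inhibition of the RCM-1 line, determined with a cell viability readout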
Description: SANGER: Inhibition of human RCM-1 cell growth in a cell viability assay.

[42] = system: RPMI-7951; assay: cells; type: functional, cell-based; conditions: Homo sapiens
Description: SANGER: Inhibition of human RPMI-7951 cell growth in a cell viability assay.

[43] = system: SK-LU-1; assay: cells; type: functional, cell-based; conditions: Homo sapiens;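 also: cell viability assay measuring growth inhibition of human SK-LU-1 cells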
Description: SANGER: Inhibition of human SK-LU-1 cell growth in a cell viability assay.

[44] = system: SK-MEL-28; assay: cells; type: functional, cell-based; conditions: Homo sapiens;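 also: growth inhibition of human SK-MEL-28 cells, read out with a cell viability assay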
Description: SANGER: Inhibition of human SK-MEL-28 cell growth in a cell viability assay.

[45] = system: SW-620; assay: cells; type: functional, cell-based; conditions: Homo sapiens;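 also: growth inhibition of human SW-620 cells, measured by a cell viability assay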
Description: SANGER: Inhibition of human SW620 cell growth in a cell viability assay.

[46] = system: SW780; assay: cells; type: functional, cell-based; conditions: Homo sapiens;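 also: growth inhibition of the cells, read out with a cell viability assay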
Description: SANGER: Inhibition of human SW780 cell growth in a cell viability assay.

[47] = system: T47D; assay: cells; type: functional, cell-based; conditions: Homo sapiens;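 also: growth inhibition of human T47D cells, measured with a cell viability assay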
Description: SANGER: Inhibition of human T47D cell growth in a cell viability assay.

[48] = system: A204; assay: cells; type: functional, cell-based; conditions: Homo sapiens;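 also: growth inhibition of human A204 cells, read out with a cell viability assay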
Description: SANGER: Inhibition of human A204 cell growth in a cell viability assay.

[49] = system: ABC-1; assay: cells; type: functional, cell-based; conditions: Homo sapiens;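 also: growth inhibition of human ABC-1 cells, read out by a cell viability assay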
Description: SANGER: Inhibition of human ABC-1 cell growth in a cell viability assay.

[50] = system: AN3-CA; assay: cells; type: functional, cell-based; conditions: Homo sapiens;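 also: growth inhibition of human AN3-CA cells measured by a cell viability assay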
Description: SANGER: Inhibition of human AN3-CA cell growth in a cell viability assay.

[51] = system: ASPC1; assay: cells; type: functional, cell-based; conditions: Homo sapiens;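 also: growth inhibition of AsPC-1 cells, read out with a cell viability assay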
Description: SANGER: Inhibition of human AsPC-1 cell growth in a cell viability assay.

[52] = system: BFTC-909; assay: cells; type: functional, cell-based; conditions: Homo sapiens
Description: SANGER: Inhibition of human BFTC-909 cell growth in a cell viability assay.

[53] = system: BXPC-3; assay: cells; type: functional, cell-based; conditions: Homo sapiens;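 also: growth inhibition of human BxPC-3 cells, read out by a cell viability assay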
Description: SANGER: Inhibition of human BxPC-3 cell growth in a cell viability assay.

[54] = system: C3A; assay: cells; type: functional, cell-based; conditions: Homo sapiens;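 also: growth inhibition of C3A human cells, quantified with a cell viability readout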
Description: SANGER: Inhibition of human C3A cell growth in a cell viability assay.

[55] = system: CAL-62; assay: cells; type: functional, cell-based; conditions: Homo sapiens;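 also: growth inhibition of CAL-62 cells, read out with a cell viability assay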
Description: SANGER: Inhibition of human CAL-62 cell growth in a cell viability assay.

[56] = system: TYK-nu; assay: cells; type: functional, cell-based; conditions: Homo sapiens;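 also: growth inhibition of human TYK-nu cells, read out by a cell viability assay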
Description: SANGER: Inhibition of human TYK-nu cell growth in a cell viability assay.

[57] = system: U2OS; assay: cells; type: functional, cell-based, U-2-OS; conditions: Homo sapiens;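 also: growth inhibition of human U-2-OS cells, determined with a cell viability assay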
Description: SANGER: Inhibition of human U-2-OS cell growth in a cell viability assay.

[58] = system: UACC-62; assay: cells; type: functional, cell-based; conditions: Homo sapiens;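 also: growth inhibition of human UACC-62 cells, read out by a cell viability assay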
Description: SANGER: Inhibition of human UACC-62 cell growth in a cell viability assay.

[59] = system: CAMA-1; assay: cells; type: functional, cell-based; conditions: Homo sapiens;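 also: growth inhibition of CAMA-1 cells, read out with a cell viability assay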
Description: SANGER: Inhibition of human CAMA-1 cell growth in a cell viability assay.

[60] = system: CAPAN-1; assay: cells; type: functional, cell-based; conditions: Homo sapiens
Description: SANGER: Inhibition of human CAPAN-1 cell growth in a cell viability assay.

[61] = system: G-361; assay: cells; type: functional, cell-based; conditions: Homo sapiens
[62] = system: SK-MEL3; assay: cells; type: functional, cell-based, SK-MEL-3; conditions: Homo sapiens
Description: SANGER: Inhibition of human SK-MEL-3 cell growth in a cell viability assay.

[63] = system: C32; assay: cells; type: functional, cell-based; conditions: Homo sapiens
Description: SANGER: Inhibition of human C32 cell growth in a cell viability assay.

[64] = system: CHP-212; assay: cells; type: functional, cell-based; conditions: Homo sapiens
Description: SANGER: Inhibition of human CHP-212 cell growth in a cell viability assay.

With `CCNc1cc(N[C@H]2CC[C@@H](O)CC2)nc(Nc2ccc3c(ccn3Cc3ccccc3)c2)n1` the IC50 [1] was greater than 5.12 µM, the IC50 [2] was greater than 5.12 µM and the IC50 [3] was greater than 5.12 µM. For the same compound, the IC50 [4] was greater than 5.12 µM, the IC50 [5] was greater than 5.12 µM and the IC50 [6] was greater than 5.12 µM. For the same compound, the IC50 [7] was greater than 5.12 µM, the IC50 [8] was greater than 5.12 µM and the IC50 [9] was greater than 5.12 µM. For the same compound, the IC50 [10] was greater than 5.12 µM, the IC50 [11] was greater than 5.12 µM and the IC50 [12] was greater than 5.12 µM. For the same compound, the IC50 [13] was greater than 5.12 µM, the IC50 [14] was greater than 5.12 µM and the IC50 [15] was greater than 5.12 µM. It also gave an IC50 [16] greater than 5.12 µM, an IC50 [17] greater than 5.12 µM and an IC50 [18] greater than 5.12 µM. For the same compound, the IC50 [19] was greater than 5.12 µM.
For `NC(=O)c1ncn([C@@H]2O[C@H](COP(=O)(O)O)[C@@H](O)[C@H]2O)c1N`, the IC50 [20] was 1920 µM, the IC50 [21] was 1510 µM and the IC50 [22] was greater than 2000 µM. It also gave an IC50 [23] of 1060 µM, an IC50 [24] of 663 µM and an IC50 [25] greater than 2000 µM. It also gave an IC50 [26] greater than 2000 µM, an IC50 [27] of 1890 µM and an IC50 [28] of 846 µM. For the same compound, the IC50 [29] was 874 µM, the IC50 [30] was greater than 2000 µM and the IC50 [31] was greater than 2000 µM. For the same compound, the IC50 [32] was greater than 2000 µM, the IC50 [33] was greater than 2000 µM and the IC50 [34] was 1300 µM. The IC50 [35] was 655 µM, the IC50 [36] was greater than 2000 µM and the IC50 [37] was greater than 2000 µM. For the same compound, the IC50 [38] was greater than 2000 µM, the IC50 [5] was 1450 µM and the IC50 [6] was greater than 2000 µM. It also gave an IC50 [39] greater than 2000 µM, an IC50 [40] greater than 2000 µM and an IC50 [41] greater than 2000 µM. The IC50 [42] was 1580 µM, the IC50 [43] was 1700 µM and the IC50 [44] was greater than 2000 µM. It also gave an IC50 [45] greater than 2000 µM, an IC50 [46] greater than 2000 µM and an IC50 [47] of 413 µM. For the same compound, the IC50 [48] was greater than 2000 µM, the IC50 [49] was greater than 2000 µM and the IC50 [50] was greater than 2000 µM. It also gave an IC50 [51] of 1330 µM, an IC50 [52] greater than 2000 µM and an IC50 [53] of 1350 µM. The IC50 [54] was greater than 2000 µM, the IC50 [55] was greater than 2000 µM and the IC50 [56] was greater than 2000 µM. For the same compound, the IC50 [57] was greater than 2000 µM, the IC50 [58] was greater than 2000 µM and the IC50 [59] was 354 µM. The IC50 [60] was greater than 2000 µM.
Compound `Cc1nc(Nc2ncc(C(=O)Nc3c(C)cccc3Cl)s2)cc(N2CCN(CCO)CC2)n1` [DASATINIB] has an IC50 [1] greater than 1.28 µM, an IC50 [2] greater than 1.28 µM and an IC50 [3] greater than 1.28 µM. For the same compound, the IC50 [4] was greater than 1.28 µM, the IC50 [5] was greater than 1.28 µM and the IC50 [6] was greater than 1.28 µM. It also gave an IC50 [7] greater than 1.28 µM, an IC50 [8] greater than 1.28 µM and an IC50 [9] greater than 1.28 µM. The IC50 [10] was greater than 1.28 µM, the IC50 [11] was greater than 1.28 µM and the IC50 [12] was greater than 1.28 µM. It also gave an IC50 [13] greater than 1.28 µM, an IC50 [14] greater than 1.28 µM and an IC50 [15] greater than 1.28 µM. It also gave an IC50 [16] greater than 1.28 µM, an IC50 [17] greater than 1.28 µM and an IC50 [18] greater than 1.28 µM. It also gave an IC50 [19] greater than 1.28 µM.
In the case of `O=c1cc(N2CCOCC2)oc2c(-c3cccc4c3sc3ccccc34)cccc12`, the IC50 [20] is reported as greater than 2 µM, the IC50 [21] is reported as greater than 2 µM and the IC50 [22] is reported as greater than 2 µM. For the same compound, the IC50 [23] was greater than 2 µM, the IC50 [61] was greater than 2 µM and the IC50 [24] was greater than 2 µM. The IC50 [25] was greater than 2 µM, the IC50 [26] was greater than 2 µM and the IC50 [1] was greater than 2 µM. For the same compound, the IC50 [27] was greater than 2 µM, the IC50 [28] was greater than 2 µM and the IC50 [30] was greater than 2 µM. The IC50 [31] was greater than 2 µM, the IC50 [32] was greater than 2 µM and the IC50 [33] was greater than 2 µM. The IC50 [34] was greater than 2 µM, the IC50 [35] was greater than 2 µM and the IC50 [36] was greater than 2 µM. It also gave an IC50 [37] greater than 2 µM, an IC50 [38] greater than 2 µM and an IC50 [5] greater than 2 µM. The IC50 [6] was greater than 2 µM, the IC50 [39] was greater than 2 µM and the IC50 [40] was greater than 2 µM. The IC50 [41] was greater than 2 µM, the IC50 [42] was greater than 2 µM and the IC50 [43] was greater than 2 µM. It also gave an IC50 [44] greater than 2 µM, an IC50 [62] greater than 2 µM and an IC50 [45] greater than 2 µM. The IC50 [46] was greater than 2 µM, the IC50 [47] was greater than 2 µM and the IC50 [48] was greater than 2 µM. For the same compound, the IC50 [16] was greater than 2 µM, the IC50 [49] was greater than 2 µM and the IC50 [50] was greater than 2 µM. The IC50 [51] was greater than 2 µM, the IC50 [52] was greater than 2 µM and the IC50 [53] was greater than 2 µM. It also gave an IC50 [63] greater than 2 µM, an IC50 [54] greater than 2 µM and an IC50 [55] greater than 2 µM. It also gave an IC50 [56] greater than 2 µM, an IC50 [57] greater than 2 µM and an IC50 [58] greater than 2 µM. For the same compound, the IC50 [59] was greater than 2 µM, the IC50 [60] was greater than 2 µM and the IC50 [64] was greater than 2 µM.
Compound `Cc1n[nH]c2ccc(-c3cncc(OC[C@@H](N)Cc4c[nH]c5ccccc45)c3)cc12` [A-443654] has an IC50 [1] of 0.561 µM, an IC50 [2] of 0.6 µM and an IC50 [3] greater than 1.02 µM. It also gave an IC50 [4] of 0.62 µM, an IC50 [5] greater than 1.02 µM and an IC50 [6] of 0.112 µM. The IC50 [7] was 0.428 µM, the IC50 [8] was 0.392 µM and the IC50 [9] was 0.54 µM. The IC50 [10] was greater than 1.02 µM, the IC50 [11] was 0.314 µM and the IC50 [12] was greater than 1.02 µM. For the same compound, the IC50 [13] was 0.62 µM, the IC50 [14] was greater than 1.02 µM and the IC50 [15] was 0.797 µM. It also gave an IC50 [16] of 0.393 µM, an IC50 [17] of 0.298 µM and an IC50 [18] of 0.191 µM. The IC50 [19] was 0.267 µM.
